The values that follow come from patent US20040254213A1, “Use of bicyclo compounds for treating alzheimer's disease” (priority 2001, published 2004).

For orientation: melting point means the temperature of the solid-liquid transition. Turning to `O=C1CC2(Cc3ccccc3)CN(Cc3ccccc3)CC([C@@H](O)Cc3ccccc3)(C1)C2O` (mixture of isomers) [Compound 18, 5(RS)-methylpheny-9(RS)-hydroxy-1(RS)-((1′-hydroxy)-2′-phenyl)-ethyl-3-benzyl-3-azabicyclo[3.3.1]nonan-7-one], the melting point was 145.5 to 147 °C.
In turn, `CC(C)CN1CC2(Cc3ccccc3)CC(=O)CC([C@@H](O)Cc3ccccc3N)(C1)C2O` (mixture of isomers) [Compound 20] registered a melting point of 164 to 165 °C.
Then `CC(C)CN1CC2(Cc3ccccc3)CC(=O)CC(C(O)Cc3ccccc3)(C1)C2O` (racemic) [Compound 16, 5(RS)-methylphenyl-9(RS)-hydroxy-1(RS)-((1′-hydroxy)-2′-phenyl)-ethyl-3-(2″-methyl)propyl-3-azabicyclo[3.3.1] nonan-7-one], with 138 to 141 °C.
